Assay results: PMC5670201 (Scientific Reports, 2017)
Ends that are not written are not given here.

How the values were obtained:
[1] = target: Human Serum Albumin (Homo sapiens, UniProt P02768); assay: Biacore SPR, antibody variable domain peptides and antibodies against human serum albumin; assay type: binding; details: for binding to human serum albumin: Biacore SPR screen, immobilized HSA and vice versa; for Kd: human, Biacore SPR, CM5 amine coupling, peptide over immobilized HSA and vice versa, pM-uM, 1:1 fit, read-out: Kinetic Binding Parameters Against Human Serum Albumin: KD
Description: The 3D structure of the positive variable region peptides were predicted by PEPFOLD 3.0 to compare to their beta hairpin structure within the full antibody[9]-[11] (Fig. 4d). […] Peptides were run in the pM-uM concentration range. […] (b) Multiple sequence alignment of the variable region peptides in question, performed by Clustal Omega. […] (d) 3D structure prediction of peptides in solution performed by PEP-FOLD 3.0, visualized in Chimera. […] Pembrolizumab included as a negative control.

[2] = target: T1, HSA Peptide 40 (Homo sapiens, UniProt P02768); assay: biochemical; assay type: binding; details: for binding to HSA Peptide 40: Biacore SPR screen, immobilized HSA Peptide 40 and vice versa
T1 construct: HSA 40 (479-496); purchased New England Peptide (Gardner, MA, USA)
Procedure: All peptides were run in the pM-uM concentration ranges. […] Short gaps in binding curves at transition times are from removal of solvent spikes during analysis. Binding kinetics were determined via Biacore Evaluation Software analysis of SPR sensograms. […] Structure, PDB 1BJ1, was visualized using UCSF Chimera.
The 3D structure of the positive variable region peptides were predicted by PEPFOLD 3.0 to compare to their beta hairpin structure within the full antibody[9]–[11] (Fig. 4d).
Peptides were run in the pM-uM concentration range. […] (b) Multiple sequence alignment of the variable region peptides in question, performed by Clustal Omega. […] (d) 3D structure prediction of peptides in solution performed by PEP-FOLD 3.0, visualized in Chimera. […] Pembrolizumab included as a negative control.
Peptides were re-suspended and stored in HBS running buffer at either 5 or 10 mg/ml, with up to 10% DMSO added as needed. All antibodies, peptides, as well as HSA, were immobilized on Biacore (GE Healthcare, Chicago, IL) CM5 chips via amine coupling according to manufacture protocol. Immobilization scouting was performed with pH 4.0–5.5 acetate at micromolar concentration ranges, to determine ideal immobilization conditions. […] All peptides and proteins were screened at multiple concentrations from pico to millimolarity, with an association time of 120 to 180 seconds and a dissociation time from 180 to 1200 seconds. Binding kinetics were determined using Biacore Evaluation Software and a 1:1 fit model.
The mixture was frozen, evaporated, and re-suspended in HPLC grade water with 0.1% trifluoroacetic acid. The digest was applied to a Waters X-Bridge Protein BEH C4 column (Waters, Milford, MA) and eluted off at a flow rate of 1 ml/min and a gradient of 0–60% Acetonitrile with 0.1% trifluroacetic acid over 60 minutes.

binding to human serum albumin [1]	Kd [1] [pM]	binding to HSA Peptide 40 [2]	Kd [2] [nM]	kon ([2]; read-out: Kinetic Binding Parameters against HSA Peptide 40: kon) [M⁻¹ s⁻¹]	Compound
binding neither		binding neither			RVP2: Rituximab Variable Domain Peptide 2 (101-120)
do not bind HSA					rituximab: commercial monoclonal antibody, anti-CD20

Second part, the compound before the results:

Compound	binding to human serum albumin [1]	Kd [1] [pM]	binding to HSA Peptide 40 [2]	Kd [2] [nM]	kon ([2]; read-out: Kinetic Binding Parameters against HSA Peptide 40: kon) [M⁻¹ s⁻¹]
CC(C)[C@H](NC(=O)[C@H](CC(N)=O)NC(=O)[C@H](Cc1ccccc1)NC(=O)[C@H](Cc1ccc(O)cc1)NC(=O)[C@H](Cc1c[nH]c2ccccc12)NC(=O)[C@H](CC(=O)O)NC(=O)CNC(=O)CNC(=O)[C@H](Cc1ccc(O)cc1)NC(=O)[C@H](Cc1ccc(O)cc1)NC(=O)[C@@H](NC(=O)[C@H](CO)NC(=O)[C@H](CCCNC(=N)N)NC(=O)[C@H](C)NC(=O)[C@H](CS)NC(=O)[C@@H](N)Cc1ccc(O)cc1)[C@@H](C)O)C(=O)N[C@@H](Cc1c[nH]c2ccccc12)C(=O)NCC(=O)N[C@@H](C)C(=O)NCC(=O)O [RVP1]	bound both	2.48e+06	bound both		
DTAVYYCAKYPHYYGSSHWYF [BVP1]		2.37e+06			
HYYGSSHWYFDVWGQ [Bevacizumab Heavy Chain 11]				503	357
